Measured values reported in US20060217447A1, “Wood preservative formulations comprising dichlorophen” (priority 2005, published 2006).
Where “and” joins values, the source holds several entries; their conditions need not be identical. Identical values can stand only once.

system: decay organisms; assay: Soil contact veneer exposure test: dip-treated Scots pine sapwood veneers in damp compost, pulled by hand weekly until failure; conditions: Example 1; 0.6% dichlorophen alone
Text: The present invention also provides a simple exposure test for evaluating the wood preserving abilities of candidate ingredients or compositions. This exposure test is based on the premise that small dimension timber test specimens tend to fail more quickly than larger ones in soil contact situations.
It is preferable that the thickness of the veneers be greater than 0.1 mm, as veneers of lesser thickness can often be pulled apart by hand without undergoing exposure to decay organisms. Veneers which are thicker than 0.4 may take an excessive amount of time to fail the exposure test. In one embodiment, the thickness of the veneers is about 0.2 mm and the wood is the sapwood of the Scots pine (Pinus sylvestris). Other woods and thicknesses can be used. […] An example of convenient width and length dimensions are 15×50 mm. However, width and length are not critical provided they are kept consistent within a test, although very large or small length or width dimensions may be difficult to handle.
Accordingly, the test of the present invention comprises testing the integrity of a veneer after exposure to a decay-inducing environment. In one embodiment, this environment is damp compost in which decay organisms are present and water is present at just above the water holding capacity of the compost. If desired, other media can be used, and the test can be conducted at water contents which are below, at, or above the water-holding capacity of the media.
In general, the integrity of the veneer is inversely related to the length of exposure to the decay promoting environment. The integrity of the veneer can be tested by applying a force to the veneer and noting whether or not the veneer breaks. Thus, if wood preservative agents are applied to the veneers, these veneers would be expected to withstand longer exposure to the environment without breaking compared to control veneers without breaking.
The force applied to the veneers is preferably a force which pulls the two ends in opposite directions. The force can be applied by the use of an instrument or manually. If there is significant decay the veneer will break, generally near the junction between the portion submerged in the decay accelerating medium and the portion exposed to air. If the force is applied manually, it is preferable that the same individual conduct the test at the various exposure time points.
The veneers were cut such that both late wood and early wood were present in each veneer. The following biocides were tested: dichlorophen, fenarimol, imazalil sulfate, and PHMB.
Test solutions were prepared and sets of veneers were dip treated such that there were 6 replicate veneers for each treatment under investigation. Additionally six veneers were dip treated in deionised water to act as water controls. […] Plastic containers (approximately 350×220 mm by at least 60 mm high) were part filled with John Innes Number 2 potting compost at a little above its water holding capacity. The veneers for a particular test were placed in six rows within a container such that approximately half the veneer was below the compost and half above. The veneers were placed in the compost such than those given a particular treatment were distributed throughout the container and were not grouped together. The containers, compost and veneers were weighed then incubated at about 30° C. and near 100% relative humidity in an incubator. Each week during the test the assembly was reweighed and deionised water added to bring it back to its original mass. After 3 weeks each veneer was examined in turn. It was held between the fingers at each end and pulled to see if it could be broken. If it could be pulled apart a failure was recorded. If the veneer was sound, this was recorded and the veneer was returned to its original position. After a further one week incubation all sound veneers were assessed again as described above, with the same person conducting the assessments.

With Oc1ccc(Cl)cc1Cc1cc(Cl)ccc1O [Dichlorophen, 2,2′-methylenebis [4-chlorophenol]] the “average time for failure to occur” value was 9.5 weeks.

same assay, conditions: Example 1; single biocide at 0.4% in treatment solution

With “1H-imidazole, 1-(2-(2,4-dichlorphenyl)-2-(2-propenyloxy)ethyl)-,sulfate [Imazalil Sulphate]” the “average time for failure to occur” value was 5.2 weeks.

same assay, conditions: Example 1; single biocide at 0.8% in treatment solution; 6 replicate veneers

OC(c1ccc(Cl)cc1)(c1cncnc1)c1ccccc1Cl (racemic) [Fenarimol, (±)-2,4′-dichloro-α-(pyrimidin-5-yl) benzhydryl alcohol] was tested, and the “average time for failure to occur” value was ~7.2 weeks and 7.2 weeks.

For “Poly(hexamethylenebiguanide) hydrochloride [PHMB]”, the “average time for failure to occur” value was 4.8 weeks.

same assay, conditions: Example 2; 0.36% active quaternary ammonium compound in deionised water

In order of falling “average time for failure to occur, Quat Only” value:
1. N,N-didecyl-N-methyl-poly(oxyethyl) ammonium propionate [Bardap 26]  5.0 weeks
2. CCCCCCCCCC[N+](C)(C)CCCCCCCCCC.[Cl-] [DDAC, didecyl dimethyl ammonium chloride]  4.2 weeks

same assay, conditions: Example 2; 0.60% dichlorophen, no quat

In the case of Oc1ccc(Cl)cc1Cc1cc(Cl)ccc1O [Dichlorophen, 2,2′-methylenebis [4-chlorophenol]], the “average time for failure to occur” value is reported as 5.7 weeks.

same assay, conditions: Example 3; solutions in IMS (alcohol); 2% single biocide

In order of rising “Half life for fungicide at 2% active ingredient (ai)” value:
1. CCCCCCCCCCCCCN1CC(C)OC(C)C1 (stereo not drawn) [Tridemorph, 4-alkyl-2,6-dimethylmorpholine]  5.83 weeks
2. CC(Cc1ccc(C(C)(C)C)cc1)CN1C[C@@H](C)O[C@@H](C)C1 (stereo partly drawn) [Fenpropimorph, cis-4-[3-[4-(1,1-dimethylethyl)phenyl]-2-methylpropyl]-=2,6-dimethylmorpholine]  6.17 weeks
3. CC(C1CC1)C(O)(Cn1cncn1)c1ccc(Cl)cc1 (stereo not drawn) [Cyproconazole, α-(4-chlorophenyl)-α-(1-cyclopropylethyl)-=1H-1,2,4-triazol-1-ethanol]  6.67 weeks
4. OC(c1ccc(Cl)cc1)(c1cncnc1)c1ccccc1Cl (racemic) [Fenarimol, (±)-2,4′-dichloro-α-(pyrimidin-5-yl) benzhydryl alcohol]  7.33 weeks
5. O=C(Nc1ccccc1)c1ccccc1O [Salicylanilide, 2-hydroxy-N-phenylbenzamide]  14.00 weeks
6. Oc1ccc(Cl)cc1Cc1cc(Cl)ccc1O [Dichlorophen, 2,2′-methylenebis [4-chlorophenol]]  15.67 weeks

same assay, conditions: Example 4; solutions in acetone; 2% single biocide

In order of rising “Half life for fungicide at 2% ai” value:
1. CCCC1COC(Cn2cncn2)(c2ccc(Cl)cc2Cl)O1 (stereo not drawn) [Propiconazole, 1-[[2-(2,4-dichlorophenyl)-4-propyl-1,3-dioxolan-2-yl]=methyl]-1H-1,2,4-triazole]  6.33 weeks
2. Oc1ccc(Cl)cc1Cc1cc(Cl)ccc1O [Dichlorophen, 2,2′-methylenebis [4-chlorophenol]]  18.17 weeks

same assay, conditions: Example 5; solutions in IMS (alcohol); 2% single biocide

In order of falling “Half life for fungicide at 2% ai” value:
1. Oc1ccc(Cl)cc1Cc1cc(Cl)ccc1O [Dichlorophen, 2,2′-methylenebis [4-chlorophenol]]  17.00 weeks
2. 1H-imidazole, 1-(2-(2,4-dichlorphenyl)-2-(2-propenyloxy)ethyl)-,sulfate [Imazalil Sulphate]  7.83 weeks
3. COC(=O)N(OC)c1ccccc1COc1ccn(-c2ccc(Cl)cc2)n1 [Pyraclostrobin, methyl N-{2-[1-(4-chlorophenyl)-1H-pyrazol-3-yloxymethyl]phenyl}(N-methoxy)carbamate]  5.67 weeks
4. CCCCCCCCCC[N+](C)(C)CCCCCCCCCC.[Cl-] [DDAC, didecyl dimethyl ammonium chloride]  5.50 weeks
5. CCCCCCCCCCCCN(CCCN)CCCN [Triameen, N,N-bis(3-aminopropyl) dodecylamine]  5.50 weeks
6. alkyl dimethyl benzyl ammonium chloride [BAC]  5.00 weeks

same assay, conditions: Example 6; solutions in IMS (alcohol); single biocide at 0.8%

In order of falling Calculated half life:
1. Oc1ccc(Cl)cc1Cc1cc(Cl)ccc1O [Dichlorophen, 2,2′-methylenebis [4-chlorophenol]]  11.33 weeks
2. 1H-imidazole, 1-(2-(2,4-dichlorphenyl)-2-(2-propenyloxy)ethyl)-,sulfate [Imazalil Sulphate]  7.00 weeks
3. CCCCCCCCCC[N+](C)(C)CCCCCCCCCC.[Cl-] [DDAC, didecyl dimethyl ammonium chloride]  5.17 weeks
4. N,N-didecyl-N-methyl-poly(oxyethyl) ammonium propionate [Bardap 26]  5.17 weeks

same assay, conditions: Example 6; solutions in IMS (alcohol); single biocide at 1.6%

In order of falling Calculated half life:
1. Oc1ccc(Cl)cc1Cc1cc(Cl)ccc1O [Dichlorophen, 2,2′-methylenebis [4-chlorophenol]]  14.50 weeks
2. 1H-imidazole, 1-(2-(2,4-dichlorphenyl)-2-(2-propenyloxy)ethyl)-,sulfate [Imazalil Sulphate]  8.00 weeks
3. CCCCCCCCCC[N+](C)(C)CCCCCCCCCC.[Cl-] [DDAC, didecyl dimethyl ammonium chloride]  6.67 weeks
4. N,N-didecyl-N-methyl-poly(oxyethyl) ammonium propionate [Bardap 26]  6.00 weeks

same assay, conditions: Example 7; solutions in acetone; single biocide at 0.8%

In order of falling Calculated half life:
1. CCCCCCCCn1sc(Cl)c(Cl)c1=O [RH 287, 4,5-dichloro-2-n-octyl-3(2H)-isothiazolone]  10.00 weeks
2. N#Cc1c(Cl)c(Cl)c(Cl)c(C#N)c1Cl [Chlorothalonil, 2,4,5,6-tetrachloro-1,3-benzenedicarbonitrile]  9.33 weeks
3. Oc1ccc(Cl)cc1Cc1cc(Cl)ccc1O [Dichlorophen, 2,2′-methylenebis [4-chlorophenol]]  8.67 weeks
4. CCCC1COC(Cn2cncn2)(c2ccc(Cl)cc2Cl)O1 (stereo not drawn) [Propiconazole, 1-[[2-(2,4-dichlorophenyl)-4-propyl-1,3-dioxolan-2-yl]=methyl]-1H-1,2,4-triazole]  5.67 weeks
5. CC(C1CC1)C(O)(Cn1cncn1)c1ccc(Cl)cc1 (stereo not drawn) [Cyproconazole, α-(4-chlorophenyl)-α-(1-cyclopropylethyl)-=1H-1,2,4-triazol-1-ethanol]  4.33 weeks
6. CC(Cc1ccc(C(C)(C)C)cc1)CN1C[C@@H](C)O[C@@H](C)C1 (stereo partly drawn) [Fenpropimorph, cis-4-[3-[4-(1,1-dimethylethyl)phenyl]-2-methylpropyl]-=2,6-dimethylmorpholine]  3.67 weeks

same assay, conditions: Example 7; solutions in acetone; single biocide at 1.6%

In order of falling Calculated half life:
1. CCCCCCCCn1sc(Cl)c(Cl)c1=O [RH 287, 4,5-dichloro-2-n-octyl-3(2H)-isothiazolone]  16.83 weeks
2. N#Cc1c(Cl)c(Cl)c(Cl)c(C#N)c1Cl [Chlorothalonil, 2,4,5,6-tetrachloro-1,3-benzenedicarbonitrile]  12.33 weeks
3. Oc1ccc(Cl)cc1Cc1cc(Cl)ccc1O [Dichlorophen, 2,2′-methylenebis [4-chlorophenol]]  10.83 weeks
4. CCCC1COC(Cn2cncn2)(c2ccc(Cl)cc2Cl)O1 (stereo not drawn) [Propiconazole, 1-[[2-(2,4-dichlorophenyl)-4-propyl-1,3-dioxolan-2-yl]=methyl]-1H-1,2,4-triazole]  6.00 weeks
5. CC(C1CC1)C(O)(Cn1cncn1)c1ccc(Cl)cc1 (stereo not drawn) [Cyproconazole, α-(4-chlorophenyl)-α-(1-cyclopropylethyl)-=1H-1,2,4-triazol-1-ethanol]  4.50 weeks
6. CC(Cc1ccc(C(C)(C)C)cc1)CN1C[C@@H](C)O[C@@H](C)C1 (stereo partly drawn) [Fenpropimorph, cis-4-[3-[4-(1,1-dimethylethyl)phenyl]-2-methylpropyl]-=2,6-dimethylmorpholine]  4.33 weeks

same assay, conditions: Example 8; solutions in IMS (alcohol); single biocide at 0.8%

In order of falling Calculated half life:
1. Oc1ccc(Cl)cc1Cc1cc(Cl)ccc1O [Dichlorophen, 2,2′-methylenebis [4-chlorophenol]]  7.83 weeks
2. Poly(hexamethylenebiguanide) hydrochloride [PHMB]  5.00 weeks
3. alkyl dimethyl benzyl ammonium chloride [BAC]  5.00 weeks
4. O=C(Nc1ccccc1)c1ccccc1O [Salicylanilide, 2-hydroxy-N-phenylbenzamide]  4.83 weeks
5. OB(O)O [Boric acid]  4.17 weeks

same assay, conditions: Example 8; solutions in IMS (alcohol); single biocide at 1.6%

In order of rising Calculated half life:
1. OB(O)O [Boric acid]  4.50 weeks
2. alkyl dimethyl benzyl ammonium chloride [BAC]  5.00 weeks
3. Poly(hexamethylenebiguanide) hydrochloride [PHMB]  5.50 weeks
4. O=C(Nc1ccccc1)c1ccccc1O [Salicylanilide, 2-hydroxy-N-phenylbenzamide]  5.83 weeks
5. Oc1ccc(Cl)cc1Cc1cc(Cl)ccc1O [Dichlorophen, 2,2′-methylenebis [4-chlorophenol]]  11.67 weeks
